Assay results taken from patent US20230172984A1, “CLEARANCE OF SENESCENT CELLS BY ACTIVATION OF iNKT CELLS” (THE REGENTS OF THE UNIVERSITY OF CALIFORNIA, priority 2020, published 2023).

Tests used:
iNKT cells in the eWAT = experiment: Flow cytometry of iNKT cells in eWAT SVF of HFD mice (CD1d tetramer); format: in vivo, mouse; details: 2 μg i.p., vs obese mice treated with vehicle
Method: (§1) α-GalCer activation of iNKT cells. iNKT cells were activated in vivo using α-GalCer as described in Peralbo et al., 2006. Decreased frequency and proliferative response of invariant Vα24Vβ11 natural killer T (iNKT) cells in healthy elderly. Biogerontology 7, 483-492. Briefly, HFD mice were i.p. injected with 200 μl of a 10 μg/ml α-GalCer solution (2 μg total) made up in 5.6% Sucrose, 5% Tween-20. On day 3 or 4 post-injection, mice were euthanized for various experiments, as indicated.
Flow cytometry of iNKT cells. eWAT SVF cells were stained with PBS57 (α-GalCer-analog) loaded onto CD1d-PE tetramers prepared by the NIH Tetramer Core and anti-CD3-APC. As a negative control for subtracting background staining in eWAT SVF, samples were also stained with unloaded CD1d-PE tetramer and anti-CD3-APC. Live cells were enumerated with DAPI, and flow cytometry was performed on an Attune acoustic focusing cytometer. Gates were set to identify: cells (FSC-A/SSC-A), forward scatter singlets (FSC-H/FSC-A), side-scatter singlets (SSC-H/SSC-A), live cells (DAPI^−), and the PBS57::CD1d-PE^+/CD3-APC^+ subpopulation. The percent of unloaded CD1d-PE^+/CD3-APC^+ cells were subtracted from the loaded tetramer stained populations to eliminate the percent of background stained cells. For lung, 1×10^6 cells from each sample were used to quantify iNKT cells. […]

[1] = Metabolic measurements in HFD-fed mice (fasting glucose, GTT, HOMA-IR); format: in vivo, mouse; details: 10 days after α-GalCer injection
Method: as §1
Metabolic measurements. Seventeen male HFD-fed C57BL6J mice were divided into the vehicle (n=8) and the α-GalCer treated group (n=9). Age-matched male C57BL6/J mice on a standard rodent chow diet were used as controls (n=8). A glucose tolerance test was performed 10 days after α-GalCer injection. Mice were fasted overnight (14 h) before being injecting 2 g/kg glucose intraperitoneally. Blood glucose was measured at 0, 15, 30, 60, and 120 min after glucose injection using a glucometer.

[2] = test system: senescent CD45^− lung cells; experiment: Bleomycin-induced lung injury model, C12FDG assay on lung cells; format: in vivo, mouse
Method: MATERIALS AND METHODS. Mouse husbandry. All procedures involving mice were performed according to the IACUC standards following ethics approval by the animal committee at the University of California, San Francisco. Male C57BL6/J on chow or HFD fed mice. HFD mice were fed a high-fat diet (60% kcal from fat) from 6 weeks until 22 weeks of age. All experiments on HFD mice were performed at 22-24 weeks total age (16-18 weeks on HFD). Age-matched male C57BL6/J mice on standard rodent chow diet were used as controls. For the lung injury model, 10-week-old male C57BL/6J mice were used. The animals were divided into three groups: the control group, the injured group, and the α-GalCer treated group. The animals in the control group received vehicle only (i.p.) on day 10. […] RBCs in cell pellet were lysed by resuspending in 1 mL lysis buffer for 3 min and was neutralized using 10 mL of sterile DMEM medium, centrifuged and the cell pellet resuspended in 1 ml of sterile DMEM containing DNase I. Viability of the cells was analyzed using Vi-Cell XR cell viability analyzer. C12FDG flow cytometry assay. eWAT SVF cells isolated and counted as described above were adjusted to 3×10^6 cells/ml in complete culture media and incubated with 33 μM C12FDG for 1 hr in a 37° C. water bath. […] Samples were analyzed on an Attune acoustic focusing cytometer. […] Data were analyzed with FlowJo (v. 10). […]

[3] = Lynch 2012, Schipper 2012, Ji 2012; cited from earlier work

**Q.** Which “iNKT cell numbers in eWAT” value (iNKT cells in the eWAT) does the source give for CCCCCCCCCCCCCCCCCCCCCCCCCC(=O)N[C@@H](CO[C@H]1O[C@H](CO)[C@H](O)[C@H](O)[C@H]1O)[C@H](O)[C@H](O)CCCCCCCCCCCCCC [GalCer, alpha-Galactosylceramide] here?
**A.** dramatically increase iNKT cell numbers

**Q.** And the “glucose tolerance (GTT)” value ([1]; 2 g/kg glucose i.p. after 14 h fast, vs vehicle)?
**A.** improved glucose tolerance

**Q.** And the “insulin sensitivity (HOMA-IR)” value ([1]; vs vehicle)?
**A.** improved insulin sensitivity

**Q.** And the fasting glucose ([1]; vs vehicle-treated HFD-fed mice)?
**A.** significantly lower fasting glucose

**Q.** And the “number of CD45^− C12FDG^+ lung cells” value ([2]; bleomycin 3 U/kg day 0, α-GalCer 2 μg/mouse i.p. day 10, lungs harvested day 14, FIG. 4A)?
**A.** decreased the number of such CD45^− C12FDG^+ lung cells to levels on par with those in the lungs of uninjured control mice

**Q.** What about the “epithelial and mesenchymal senescent cells in lung” value ([2]; bleomycin-injured mice treated with GalCer) of the same compound?
**A.** both epithelial and mesenchymal senescent cells were affected

**Q.** What about the “metabolic phenotypes in the HFD mouse model (literature)” value [3] of the same compound?
**A.** reverse adverse metabolic phenotypes
